Experimental data as given in patent US12721861B2, “Delivery and retention of active agents within the skin” (Fount Bio, Inc., priority 2019, dated 2026).
“Also recorded” adds a separate entry of the source.

Columns and labels:
[1] = system: 3D reconstructed epidermis model (Epiderm tissue, Epi-200); assay: Skin irritation test (OECD TG 439, EPI-200-SIT), MTT viability; type: cell-based, human; settings: for reduction in cell viability in the skin tissue: 1 h exposure, MTT, relative to PBS, SDS 5%, HA-CBT 20 and 2 mg/mL, gly-CBT 1 and 0.1 mg/mL
Method: To evaluate the biocompatibility of CBT functionalized molecules, a skin irritation study was conducted using a 3D reconstructed epidermis model supplied by Mattek. The skin irritation test was conducted following the OECD TG 439 protocol as a basis. Upon receiving the Epiderm™ tissue (Epi-200) from Mattek, the tissue inserts were removed from agarose and incubated in 0.9 mL of media in 6 well plates for 1 h at 37° C. The tissue inserts were then transferred to new wells containing 0.9 mL of fresh media, and incubated overnight for 18 h at 37° C. 30 μL of PBS, HA-CBT (20 mg/mL and 2 mg/mL in PBS), gly-CBT (1 mg/mL and 0.1 mg/mL), and SDS (5 wt %) was applied and spread on the top of 3 independent tissue inserts each. After incubation at 37° C. for 1 h, the formulations were pipetted out and the tissue inserts were washed three times with PBS. The tissue inserts were then incubated in fresh media for 24 h at 37° C. The media was then exchanged with fresh media, and the inserts were incubated for an additional 18 h at 37° C. Following incubation, the viability of the tissue was assessed using the MTT assay, discussed in detail in a protocol established by Mattek (EPI-200-SIT).

[2] = Skin penetration on porcine skin, fluorescence microscopy of cryosections; type: in vitro ADME
Method: Frozen, porcine skin was allowed to equilibrate to room temperature, and then cut into ~2×2 cm squares and placed into 0.9 mL of PBS in a 6 well plate. 25 μL of HA-CBT (10 mg/mL in PBS), gly-CBT (1 mg/mL in PBS), and PBS were gently spread on porcine skin to a 1 cm circle with a metal spatula. After spreading the formulations, the 6 well plate was placed into a humidified incubator at 37° C. for 18 h.
A small region in the center of the application area was then excised using a surgical scalpel, and placed into OCT in a biopsy mold. The tissue was snap frozen by placing the biopsy mold directly into a methylpentane, dry ice slurry. The tissue was then sectioned on a cryostat microtome to 20 μm sections. A drop of ProLong Gold was placed on each section and covered with a coverslip prior to imaging. Images were taken on a ZeissAxioPlan2 using a 10× objective and a DAPI filter to visualize the location of CBT.

[3] = Distribution of chemical species in EpiDerm tissue by HPLC with sequential extractions; type: in vitro ADME, human
Method: To further study the penetration of gly-CBT within human skin tissue, HPLC was used to quantify the distribution of different chemical species after application of gly-CBT and gly-aminoLuciferin (gly-Luc) into EpiDerm™ tissue. As described above, 100 μL of gly-CBT and gly-Luc was applied on the top of the skin tissue. Following 6 h incubation, the donor and acceptor solutions were collected and the chemical species which penetrated the skin were attempted to be extracted with 1:1 MeOH:PBS. Following the first extraction protocol, the tissue inserts were rinsed with PBS and imaged in a dark room by exposing with a UV254 lamp. Following the imaging, further extractions were carried out sequentially with 1.0% Triton X-100, acidified MeOH (0.1% TFA), and DCM. Neither of the later extractions were successful in extracting out any additional CBT species.

[4] = Penetration of gly-CBT in 3D human skin model (EpiDerm), absorbance at 326 nm and microscopy; type: in vitro ADME
Method: The penetration and interactions of gly-CBT in human skin was assessed using a 3D human skin model (Mattek EpiDerm™). After allowing the skin tissues to equilibrate with media for 1 h at 37° C. in 6 well plates, the media was replaced with PBS and 100 μL of PBS and gly-CBT (1 mg/mL) were applied on top of 4 skin tissues each. Following 6 h incubation, a single tissue from each group was flash frozen in OCT for cryosectioning and microscopy. For the remaining samples, the liquid which remained on top of the tissue inserts (~100 μL) and the liquid in the acceptor solution (900 μL) was collected. The top of the tissue inserts were then washed 2× with PBS and then the inserts were submerged into 2 mL of a 1:1 PBS:MeOH solution to extract molecules which penetrated the skin. After performing the extraction for 2 h at 37° C., the concentration of gly-CBT was measured in the donor, acceptor, and extract solutions by reading the absorbance at 326 nm with a plate reader. The remaining tissue insert was cryosectioned and imaged using fluorescent microscopy as described in Example 1.

extraction of gly-CBT from porcine skin [2]	fluorescence signal in the dermis ([2]; 18 h at 37 °C, DAPI filter)	fluorescence within the stratum corneum and epidermis ([2]; 18 h at 37 °C, DAPI filter, HA-CBT 10 mg/mL, gly-CBT 1 mg/mL in PBS)	fluorescence of tissue insert under UV lamp ([3]; after first extraction process and washing step)	applied gly-CBT extracted from within the Epiderm tissue ([4]; 1:1 PBS:MeOH extraction 2 h at 37 °C)	total gly-CBT detected after extraction and in donor and acceptor solutions ([4]; 6 h incubation, 1:1 PBS:MeOH extraction)	fraction of the penetrated amount that appeared in the acceptor compartment ([4]; EpiDerm, 6 hours)	fraction of the penetrated amount that remained in the skin ([4]; EpiDerm, 6 hours)	applied dose that penetrated the skin ([4]; EpiDerm, within 6 hours)	fluorescent signal within the tissue by microscopy ([4]; after 6 h application, cryosection)	applied gly-CBT remaining on the surface of the epiderm tissue ([4]; after 6 h incubation, 1 mg/mL, absorbance 326 nm)	Structure (SMILES)	reduction in cell viability in the skin tissue [1]	irritation classification ([1]; EPI-200-SIT, relative viability greater than 50% = non-irritant)	extractability from the tissue with Triton X-100, acidified methanol and dichloromethane ([3]; sequential extractions after 1:1 MeOH:PBS)
inability to extract	lower signal	High fluorescence	extremely fluorescent	~ 10%	~ 50%	about ⅓	⅔	about 75%	significant fluorescent signal	~ 25%	N#Cc1nc2ccc(NC(=O)CN)cc2s1 [gly-CBT]	neither gly-CBT nor HA-CBT showed any reduction	non-irritants	unable to be extracted; also recorded: could not be removed
											CCCCCCCCCCCCOS(=O)(=O)[O-].[Na+] [SDS, reference compound]	~100%		
